According to patent publication US9550728B2, “Thermo-responsive draw solute for forward osmosis and method for water desalination and purification using the same” (SEOUL NATIONAL UNIVERSITY R&DB FOUNDATION, priority 2011, dated 2017):

Experiments:
[1] = Measurement of transmittances of aqueous draw solute solutions according to temperature variation (UV/IR spectrometer); assay type: physicochemical
Method: For this observation, the transmittances of aqueous solutions of the draw solutes were measured using a UV/IR spectrometer.

[2] = Verification of reproducibility of forward osmosis experiments (repeated low/high temperature cycles); conditions: 2.0 M nBu-DETA, positive = flow from brine to nBu-DETA solution
Excerpt: A draw solute for a forward osmosis process should be able to be continuously reused after the process. […] FIG. 26 is a graph showing changes in the flux of water during repeated experiments using 2.0 M nBu-DETA.
In a conventional process using ammonium carbonate/ammonium hydroxide, recondensation is required to reuse recovered ammonia and carbon dioxide molecules. In contrast, in the three repeated cycles of forward osmosis using nBu-DETA as a draw solute, any special process for dissolution except stirring was not carried out but the solute having undergone a phase transition were dissolved when hot water was exchanged with cold water in the thermostatic bath. As a result, similar levels of fluxes were obtained, which can be seen from FIG. 26 and Table 9.

[3] = Measurement of flows and fluxes of water in forward osmosis through cellulose acetate semi-permeable membrane (brine vs draw solution)
Method: Referring to FIG. 11, the system has a structure in which glass tubes are arranged to face each other through a semi-permeable membrane. Unpurified water is arranged in one of the glass tubes and a draw solution is arranged in the other glass tube. After the glass tubes are placed in a temperature-controllable water bath, water desalination and purification experiments are conducted. Specifically, the experiments using LCST draw solutes are carried out in the order of low temperature (homogeneous phase) and high temperature (phase transition). The experiments using UCST draw solutes are carried out in the order of high temperature (homogeneous phase) and low temperature (phase transition). As the semi-permeable membrane, a cellulose acetate semi-permeable membrane is used. Specifically, the semi-permeable membrane includes a support layer composed of a polyester fiber coated with polyethylene and a dense layer composed of a cellulose triacetate fiber. The semi-permeable membrane is characterized by the ability to remove 95% or more of salts and low-molecular-weight materials.
Forward osmosis experiments were conducted at laboratory level using the thermo-responsive draw solutes synthesized above. The fluxes and directivities of water at low/high temperatures were confirmed with varying concentrations of brines and the draw solutions.
A stirrer was installed to maintain a uniform state of the solution in each glass tube and a thermostatic bath was installed for temperature control. After the temperature was maintained constant, the flux of water was measured. The amount of water flowing through the membrane was expressed in volume per unit area of the membrane and unit time (L/m^2h, LMH). The fluxes and directivities of water at low and high temperatures were measured at time points of each experiment. For better visual observation, a slight amount of dye was added to the system.

[4] = aqueous solution of UCST draw solute at temperatures equal to or higher than the reference temperature
[5] = aqueous solution of LCST draw solute at temperatures lower than the reference temperature

Compound: CC(C)C(=O)O [IBA]
- Transmittance [1, 4]: 100%

Compound: CCCCC(=O)NCCCN(C)CCCNC(=O)CCCC [Val-DAPMA]
- Transmittance [1, 5]: 100%

Compound: CCCC(=O)NCCN(CCNC(=O)CCC)C(=O)CCC [nBu-DETA]
- Transmittance [1, 5]: 100%
- Flux (L/m^2h) ([2]; 18° C., 1 Cycle): 0.61 L/m^2h
- Flux (L/m^2h) ([2]; 18° C., 2 Cycle): 0.71 L/m^2h
- Flux (L/m^2h) ([2]; 18° C., 3 Cycle): 0.71 L/m^2h
- Flux (L/m^2h) ([2]; 70° C., 1 Cycle): −0.64 L/m^2h
- Flux (L/m^2h) ([2]; 70° C., 2 Cycle): −0.79 L/m^2h
- Flux (L/m^2h) ([2]; 70° C., 3 Cycle): −0.61 L/m^2h
- Flux of water ([3]; 0.5M nBu-DETA draw solution, 0.050M NaCl, 18 (±0.5)° C., flow direction NaCl→nBu-DETA): 1.3 LMH
- Flux of water ([3]; 0.5M nBu-DETA, 0.10M NaCl, 18 (±0.5)° C., NaCl→nBu-DETA): 0.90 LMH
- Flux of water ([3]; 0.5M nBu-DETA, 0.15M NaCl, 18 (±0.5)° C., NaCl→nBu-DETA): 0.52 LMH
- Flux of water ([3]; 1.0M nBu-DETA, 0.10M NaCl, 18 (±0.5)° C., NaCl→nBu-DETA): 1.5 LMH
- Flux of water ([3]; 1.0M nBu-DETA, 0.15M NaCl, 70 (±0.5)° C., nBu-DETA→NaCl): 0.93 LMH
- Flux of water ([3]; 1.0M nBu-DETA, 0.20M NaCl, 18 (±0.5)° C., NaCl→nBu-DETA): 0.77 LMH
- Flux of water ([3]; 1.0M nBu-DETA, 0.2M NaCl, 70 (±0.5)° C., nBu-DETA→NaCl): 0.96 LMH
- Flux of water ([3]; 1.0M nBu-DETA, 0.30M NaCl, 18 (±0.5)° C., NaCl→nBu-DETA): 0.52 LMH
- Flux of water ([3]; 1.0M nBu-DETA, 0.35M NaCl, 70 (±0.5)° C., nBu-DETA→NaCl): 1.4 LMH
- Flux of water ([3]; 1.0M nBu-DETA, 0.5M NaCl, 70 (±0.5)° C., nBu-DETA→NaCl): 1.8 LMH
- Flux of water ([3]; 1.6M nBu-DETA, 0.15M NaCl, 70 (±0.5)° C., nBu-DETA→NaCl): 1.2 LMH
- Flux of water ([3]; 1.6M nBu-DETA, 0.25M NaCl, 70 (±0.5)° C., nBu-DETA→NaCl): 1.2 LMH
- Flux of water ([3]; 1.6M nBu-DETA, 0.35M NaCl, 70 (±0.5)° C., nBu-DETA→NaCl): 1.3 LMH
- Flux of water ([3]; 1.6M nBu-DETA, 0.5M NaCl, 70 (±0.5)° C., nBu-DETA→NaCl): 1.2 LMH
- Flux of water ([3]; 2.0M nBu-DETA, 0.05M NaCl, 70 (±0.5)° C., flow direction nBu-DETA→NaCl): −0.071 LMH
- Flux of water ([3]; 2.0M nBu-DETA, 0.1M NaCl, 70 (±0.5)° C., nBu-DETA→NaCl): 0.36 LMH
- Flux of water ([3]; 2.0M nBu-DETA, 0.15M NaCl, 70 (±0.5)° C., nBu-DETA→NaCl): 0.75 LMH
- Flux of water ([3]; 2.0M nBu-DETA, 0.20M NaCl, 18 (±0.5)° C., NaCl→nBu-DETA): 1.7 LMH
- Flux of water ([3]; 2.0M nBu-DETA, 0.25M NaCl, 70 (±0.5)° C., nBu-DETA→NaCl): 0.96 LMH
- Flux of water ([3]; 2.0M nBu-DETA, 0.35M NaCl, 70 (±0.5)° C., nBu-DETA→NaCl): 1.2 LMH
- Flux of water ([3]; 2.0M nBu-DETA, 0.40M NaCl, 18 (±0.5)° C., NaCl→nBu-DETA): 0.65 LMH
- Flux of water ([3]; 2.0M nBu-DETA, 0.5M NaCl, 70 (±0.5)° C., nBu-DETA→NaCl): 1.4 LMH
- Flux of water ([3]; 2.0M nBu-DETA, 0.60M NaCl, 18 (±0.5)° C., NaCl→nBu-DETA): 0.26 LMH

Compound: CCCCC(=O)NCCN(CC)CC [Val-DEEA]
- Transmittance [1, 5]: 100%

Compound: OCCOc1ccccc1 [EGPE]
- Transmittance [1, 4]: 100%
- Flux of water from EGPE to NaCl ([3]; 6.4 M EGPE, 0.15 M brine, 5° C. (phase transition)): 0.036 LMH
- Flux of water from NaCl to EGPE ([3]; 6.4 M EGPE, 0.3 M brine, 50° C.): 0.14 LMH

Compound: CCCC(=O)NCCCN(C)CCCNC(=O)CCC [nBu-DAPMA]
- Transmittance [1, 5]: 100%

Compound: CC(C)C(N)=O [IBAm]
- Transmittance [1, 4]: 100%

Compound: CCN(CC)CCNC(=O)C(C)C [iBu-DEEA]
- Transmittance [1, 5]: 100%

Compound: CCCC(=O)NCCN(C(C)C)C(C)C [nBu-DIPA]
- Transmittance [1, 5]: 100%

Compound: CCCCCOCC(C)O (stereo not drawn) [PNP]
- Transmittance [1, 5]: 100%

Compound: CCCCCCOCCOCCO [DEH]
- Transmittance [1, 5]: 100%
- Flux (LMH) ([3]; 2 M DEH, 0.025 M NaCl, 40 (+0.5)° C., flow direction DEH→NaCl): 1.6422 LMH
- Flux (LMH) ([3]; 2 M DEH, 0.05 M NaCl, 40 (+0.5)° C., DEH→NaCl): 1.1 LMH
- Flux (LMH) ([3]; 2 M DEH, 0.1 M NaCl, 40 (+0.5)° C., DEH→NaCl): 0.71 LMH
- Flux (LMH) ([3]; 2 M DEH, 0.15 M NaCl, 40 (+0.5)° C., DEH→NaCl): 0.36 LMH
- Flux (LMH) ([3]; 4.0 M DEH, 0.60 M NaCl, 18 (±0.5)° C., flow direction NaCl→DEH): 0.29 LMH

Compound: CCCCNC(=O)CC [N-BPA]
- Transmittance [1, 5]: 100%
